Data reported in patent EP2924040A1, “2-Amino-1-(o-tolyl)pyrrolo[3,2-b]quinoxaline-3-carboxamide derivates” (Universität Zürich, priority 2014, dated 2015).

Columns and labels:
EphA3 = molecular target: T1, EphA3 (Homo sapiens, UniProt P29320); test: Differential Scanning Fluorimetry; type: binding; settings: 2 µmol/L EphA3, test compound 20 µmol/L, pH 8.0; read-out: difference in the melting temperature Tm (Δ Tm)
T1 sequence (P29320 21-983): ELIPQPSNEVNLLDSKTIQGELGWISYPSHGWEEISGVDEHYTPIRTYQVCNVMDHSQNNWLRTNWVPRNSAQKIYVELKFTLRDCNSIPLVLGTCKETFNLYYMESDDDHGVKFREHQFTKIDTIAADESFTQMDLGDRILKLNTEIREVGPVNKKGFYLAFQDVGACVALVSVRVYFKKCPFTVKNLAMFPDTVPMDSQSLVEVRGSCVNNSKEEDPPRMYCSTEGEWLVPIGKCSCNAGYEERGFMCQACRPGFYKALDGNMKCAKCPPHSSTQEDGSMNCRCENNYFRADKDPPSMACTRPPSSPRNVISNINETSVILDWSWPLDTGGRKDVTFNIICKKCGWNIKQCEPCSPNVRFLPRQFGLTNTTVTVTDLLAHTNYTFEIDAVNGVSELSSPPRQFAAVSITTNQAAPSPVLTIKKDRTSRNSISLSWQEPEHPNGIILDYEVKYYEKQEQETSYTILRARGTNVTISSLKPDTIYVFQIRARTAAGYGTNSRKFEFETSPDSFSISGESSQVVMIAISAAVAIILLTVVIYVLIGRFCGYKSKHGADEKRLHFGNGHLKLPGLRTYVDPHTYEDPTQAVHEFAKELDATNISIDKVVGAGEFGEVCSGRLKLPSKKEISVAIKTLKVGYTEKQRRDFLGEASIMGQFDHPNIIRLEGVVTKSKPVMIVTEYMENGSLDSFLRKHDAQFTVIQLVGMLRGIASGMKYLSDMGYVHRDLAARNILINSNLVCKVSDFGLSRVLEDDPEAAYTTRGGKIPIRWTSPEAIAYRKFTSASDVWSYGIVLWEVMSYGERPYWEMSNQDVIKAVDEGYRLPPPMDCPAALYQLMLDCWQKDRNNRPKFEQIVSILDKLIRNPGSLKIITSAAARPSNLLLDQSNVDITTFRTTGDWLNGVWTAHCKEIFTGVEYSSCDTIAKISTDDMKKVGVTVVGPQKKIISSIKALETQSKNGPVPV
Description: To a 2 µmol/L solution of EphA3 in 10mM Tris HCl buffer (pH 8.0) containing 100mM NaCl, 5X SYPRO Orange fluorescent dye together with the test compounds prediluted in DMSO at a concentration of 20 µmol/L (1.4% final DMSO concentration). A final volume of 40 µL was added per well in a 96-well plate and incubated at room temperature for 1 h. The plates were centrifuged for 3 min at 450 rcf. The temperature gradient was performed in the range of 25 to 75 °C (50 acquisitions per degree at a ramp rate of […]) using a LightCycler 480 Real-Time PCR System. The detection of protein unfolding was performed with an excitation wavelength of 488 nm and an emission of 580 nm. All measurements were performed in triplicate. Compound 2 comprises a difference in the melting temperature Tm (corresponding to the temperature at which the concentrations of folded and unfolded protein are equal) with respect to EphA3 of 11.44 °C (Δ Tm), whereas prior art compounds 17 and 87 presented differences in the melting temperature Tm with respect to EphA3 of 1.6 and 0.7 °C, respectively.

K562 = test: Cell culture and GI50 determination (resazurin); type: cell-based; settings: Homo sapiens, K562, 48 hour incubation
Description: MDA-MB-231 (breast cancer) and KM12 (colon cancer) cells obtained from the UZH Cancer Institute, HOP-92 (lung cancer) cells purchased from the National Cancer Institute (NCl) and A498 (kidney cancer) cells obtained from Prof. Krek (Institute of Cell Biology, ETH Zurich) were cultured in Dulbecco's modified Eagle's medium (DMEM) supplemented with 10% (v/v) fetal bovine serum. K562 leukemia cells obtained from Dr. Silvio Hemmi (Institute of Molecular Life Sciences, UZH) were cultured using RPMI medium supplemented with 5% (v/v) fetal bovine serum. All the media was additionally supplemented with 100 units/mL of penicillin, 100µg/mL of streptomycin, 4.5 g/L glucose, 0.11g/L sodium pyrubate and 2mM glutamine and the cells were grown at 37 °C in 5% CO2 atmosphere with 80% relative humidity.
In the case of K-562 leukemia cells, these were seeded at a density of 20,000 cells per well in 100µL of RMPI media in a 96 well microtiter plates. […] After 48 hour incubation, cell viability was assessed by measuring the ability of the cells to process resazurin. Resazurin was added to every well to obtain a final concentration of 86nmol/L, and after 3 hours, the fluorescence was quantified using a fluorescence microplate reader (Biotek, FLx800™) at the respective excitation and emission wavelength of 560 and 590 nm as described above. […]

HT-29 = test: Cell culture and GI50 determination (resazurin); type: cell-based; settings: Homo sapiens; HT-29, resazurin
Description: MDA-MB-231, HT-29, KM12, HOP-92 and A498 cells were plated at 10,000 cells per well (100 µL per well) in 96-well culture dishes and allowed to incubate for 24 h. The old media was removed, the cells were washed with PBS (phosphate-buffered saline) and fresh media was added. A 5 mmol/L solution of inhibitor (in 100% DMSO) was serially diluted in the culture media (12 different concentrations were used) and allowed to incubate for 72 h (MDA-MB-231) or 48h (A498). Control cells were treated with the same DMSO concentrations. After the incubation period the media was once more removed and the cells were washed with PBS to then be incubated with fresh media containing 86 nmol/L resazurin. After 3 hours, the fluorescence was quantified using a fluorescence microplate reader (Biotek, FLx800™) at the respective excitation and emission wavelength of 560 and 590 nm. Resazurin becomes fluorescent under mitochondrial reduction and its emission directly correlates with the metabolic stability of the cells. The measured fluorescence values were corrected from the control samples containing DMSO and GI50 values were determined by plotting the fraction of metabolically active cells against the log of the drug concentration. All measurements were performed at least in triplicate.

Cc1ccc(O)cc1-n1c(N)c(C(N)=O)c2nc3ccccc3nc21 [Compound 2, 2-Amino-1-(5-hydroxy-2-methylphenyl)-1H-pyrrolo[2,3-b]quinoxaline-3-carboxamide]
ΔTm at 20 µM (EphA3): 11.4 °C | GI50 (K562): 1050 nM | GI50 (HT-29): 4590 nM
